Test results as given in patent US10085955B2, “Methods and compositions for treatment of demyelinating diseases” (Pathologica LLC, priority 2013, dated 2018).

Tested on: carrageenan-induced paw edema and hyperalgesia
Assay: Carrageenan paw test for edema and hyperalgesia
Type: in vivo, Swiss Webster mice
Source text: Injection of carrageenan subcutaneously into the hind foot (paw) of a rat or mouse induces robust inflammation and pain. The inflammatory response begins 1-2 hrs post-carrageenan injection and persists for at least five hours following inoculation. In addition, the animal's inflamed hind paw is sensitive to noxious (hyperalgesia) or innocuous (allodynia) stimuli, compared to the contralateral hind paw. Compounds can be evaluated in this model for anti-hyperalgesia and anti-inflammatory activity. […] It is possible that some compounds will affect the inflamed paw and not affect the responses of the contralateral paw.
Embodiments of the carrageenan foot edema test are performed with materials, reagents and procedures essentially as described by Winter, et al., (Proc. Soc. Exp. Biol. Med., 111, 544 (1962)). Prophylactic and therapeutic embodiments have been developed, and are known in the art. The animals are evaluated for their responsiveness to noxious (paw pinch, plantar test) or innocuous (cold plate, von Frey filaments) stimuli. In the following protocol, mice were used.
Healthy young male Swiss Webster mice in which weight variation of the mice will not exceed ±20% of the mean were used for the study. Animals were divided into four groups of forty, and each group was dosed by oral gavage with either MGBG (BID, 12 hours apart at 30 mg/kg in 5 mL/kg normal saline), dexamethasone as positive control (QD, 1 mg/kg in 5 mL/kg 0.5% methylcellulose), or saline vehicle (BID, 5 mL/kg). […]
Immediately before sub-plantar administration of carrageenan and after 2, 3, 5 and 24 hours post carrageenan, mouse paw volume was measured using the plethysmometer (Ugo Basile). The assessment of edema was expressed as the mean increase in paw volume relative to control.
Prior to sub-plantar administration of carrageenan and after 0.5, 2, 3, 5, and 24 hours post-carrageenan, the latency of withdrawal response was determined by placing mice on a hot plate analgesia meter with surface temperature maintained at 51° C. […] Paw withdrawal latency is calculated as Δt=right paw withdrawal—left paw withdrawal. […]

How did the “efficacy at lower doses” value (mice, 3 mg/kg PO BID and 10 mg/kg PO BID) turn out when `CC(/C=N/NC(=N)N)=N\NC(=N)N` [MGBG, 1,1′ [methylethanediylidene]dinitrilodiguanidine] was run?
The value was “observed efficacy”.

What about the edema and hyperalgesia (mice, MGBG PO BID (30 mg/kg; alternative 3, 10, 30 mg/kg)) of the same compound?
The edema and hyperalgesia was “efficacious in reducing edema and hyperalgesia”.

What about the top efficacious dose (murine carrageenan-induced paw edema and hyperalgesia models) of the same compound?
Its top efficacious dose is 30 mg/kg PO BID.
